From patent publication US7323447B2, “Hepatitis C virus inhibitors” (Bristol-Myers Squibb Company, priority 2005, dated 2008)
Where two headings read alike, the source gives them in different places.

Assays:
[1] = biological target: T1, HCV NS3/4A protease complex (BMS strain) (UniProt P27958); experiment: FRET peptide assay to monitor HCV NS3/4A proteolytic activity, BMS strain; format: biochemical, Hepatitis C virus (genotype 1a); conditions: read-out: IC50 Range; HCV NS3/4A enzyme assay; Table 1
T1 construct: other: HCV NS3/4A enzyme assay; said of H77 and J4L6S; fused on or other part: Three-lysine solubilising tail at the NS4A C-terminus and a His tag from pET21b (Ni-NTA purification), for the H77 and J4L6S constructs
From the text: HCV NS3 protease complexes, derived from the BMS strain, H77 strain or J4L6S strain, were generated, as described below. These purified recombinant proteins were generated for use in a homogeneous assay (see below) to provide an indication of how effective compounds of the present disclosure would be in inhibiting HCV NS3 proteolytic activity.
Serum from an HCV-infected patient was obtained from Dr. T. Wright, San Francisco Hospital. An engineered full-length cDNA (compliment deoxyribonucleic acid) template of the HCV genome (BMS strain) was constructed from DNA fragments obtained by reverse transcription-PCR (RT-PCR) of serum RNA (ribonucleic acid) and using primers selected on the basis of homology between other genotype 1a strains. From the determination of the entire genome sequence, a genotype 1a was assigned to the HCV isolate according to the classification of Simmonds et al. (See P Simmonds, K A Rose, S Graham, S W Chan, F McOmish, B C Dow, E A Follett, P L Yap and […] Marsden, J. Clin. Microbiol., 31(6), 1493-1503 (1993)). […] The infectious clones, H77 (1a genotype) and J4L6S (1b genotype) were obtained from R. Purcell (NIH) and the sequences are published in Genbank (AAB67036, see Yanagi, M., Purcell, R. H., Emerson, S. U. and Bukh, J. Proc. Natl. Acad. Sci. U.S.A. 94(16), 8738-8743 (1997); AF054247, see Yanagi, M., St Claire, M., Shapiro, M., Emerson, S. U., Purcell, R. H. and Bukh, J, Virology 244 (1), 161-172. (1998)).
NS3/4A protease complex-containing fractions were pooled and loaded on a desalting column Superdex-S200 pre-equilibrated with buffer D (25 mM HEPES, pH 7.5, 20% glycerol, 300 mM NaCl, 0.2% Triton X-100, 10 mM βME). Sample was loaded at a flow rate of 1 mL/min. NS3/4A protease complex-containing fractions were pooled and concentrated to approximately 0.5 mg/ml. The purity of the NS3/4A protease complexes, derived from the BMS, H77 and J4L6S strains, were judged to be greater than 90% by SDS-PAGE and mass spectrometry analyses. The enzyme was stored at −80° C., thawed on ice and diluted prior to use in assay buffer.
The purpose of this in vitro assay was to measure the inhibition of HCV NS3 protease complexes, derived from the BMS strain, H77 strain or J4L6S strain, as described above, by compounds of the present disclosure. This assay provides an indication of how effective compounds of the present disclosure would be in inhibiting HCV NS3 proteolytic activity.
In order to monitor HCV NS3/4A protease activity, an NS3/4A peptide substrate was used. The substrate was RET S1 (Resonance Energy Transfer Depsipeptide Substrate; AnaSpec, Inc. cat # 22991) (FRET peptide), described by Taliani et al. in Anal. Biochem. 240(2):60-67 (1996). The sequence of this peptide is loosely based on the NS4A/NS4B natural cleavage site for the HCV NS3 protease except there is an ester linkage rather than an amide bond at the cleavage site. The peptide also contains a fluorescence donor, EDANS, near one end of the peptide and an acceptor, DABCYL, near the other end. The fluorescence of the peptide is quenched by […] resonance energy transfer (RET) between the donor and the acceptor, but as the NS3 protease cleaves the peptide the products are released from RET quenching and the fluorescence of the donor becomes apparent.
The peptide substrate was incubated with one of the three recombinant NS3/4A protease complexes, in the absence or presence of a compound of the present disclosure. The inhibitory effects of a compound were determined by monitoring the formation of fluorescent reaction product in real time using a Cytofluor Series 4000.
Assay buffer: 50 mM HEPES, pH 7.5; 0.15 M NaCl; 0.1% Triton; 15% Glycerol; 10 mM βME. Substrate: 2 μM final concentration (from a 2 mM stock solution in DMSO stored at −20° C.). HCV NS3/4A protease type 1a (1b), 2-3 nM final concentration (from a 5 μM stock solution in 25 mM HEPES, pH 7.5, 20% glycerol, 300 mM NaCl, 0.2% Triton-X100, 10 mM βME). […]

[2] = system: HCV replicon in HUH-7 cells; experiment: HCV replicon FRET assay; format: cell-based, Hepatitis C virus (strain 1b); conditions: Table 1
From the text: An HCV replicon whole cell system was established as described by Lohmann V, Korner F, Koch J, Herian U, Theilmann L, Bartenschlager R., Science 285(5424): 110-3 (1999). This system enabled us to evaluate the effects of our HCV Protease compounds on HCV RNA replication. Briefly, using the HCV strain 1b sequence described in the Lohmann paper (Assession number: AJ238799), an HCV cDNA was synthesized by Operon Technologies, Inc. (Alameda, Calif.), and the full-length replicon was then assembled in plasmid pGem9zf(+) (Promega, Madison, Wis.) using standard molecular biology techniques. The replicon consists of (i) the HCV 5′ UTR fused to the first 12 amino acids of the capsid protein, (ii) the neomycin phosphotransferase gene (neo), (iii) the IRES from encephalomyocarditis virus (EMCV), and (iv) HCV NS3 to NS5B genes and the HCV 3′ UTR. Plasmid DNAs were linearized with ScaI and RNA transcripts were synthesized in vitro using the T7 MegaScript transcription kit (Ambion, Austin, Tex.) according to manufacturer's directions. In vitro transcripts of the cDNA were transfected into the human hepatoma cell line, HUH-7. […] Resulting cell lines were characterized for positive and negative strand RNA production and protein production over time.
The HCV replicon FRET assay was developed to monitor the inhibitory effects of compounds described in the disclosure on HCV viral replication. HUH-7 cells, constitutively expressing the HCV replicon, were grown in Dulbecco's Modified Eagle Media (DMEM) (Gibco-BRL) containing 10% Fetal calf serum (FCS) (Sigma) and 1 mg/ml G418 (Gibco-BRL). Cells were seeded the night before (1.5×10^4 cells/well) in 96-well tissue-culture sterile plates. Compound and no compound controls were prepared in DMEM containing 4% FCS, 1:100 Penicillin/Streptomysin (Gibco-BRL), 1:100 L-glutamine and 5% DMSO in the dilution plate (0.5% DMSO final concentration in the assay). Compound/DMSO mixes were added to the cells and incubated for 4 days at 37° C. After 4 days, cells were first assessed for cytotoxicity using alamar Blue (Trek Diagnotstic Systems) for a CC50 reading. The toxicity of compound (CC50) was determined by adding 1/10th volume of alamarBlue to the media incubating the cells. After 4 h, the fluorescence signal from each well was read, with an excitation wavelength at 530 nm and an emission wavelength of 580 nm, using the Cytofluor Series 4000 (Perspective Biosystems). Plates were then rinsed thoroughly with Phosphate-Buffered Saline (PBS) (3 times 150 μl). The cells were lysed with 25 μl of a lysis assay reagent containing an HCV protease substrate (5× cell Luciferase cell culture lysis reagent (Promega #E153A) diluted to 1× with distilled water, NaCl added to 150 mM final, the FRET peptide substrate (as described for the enzyme assay above) diluted to 10 μM final from a 2 mM stock in 100% DMSO. The plate was then placed into the Cytofluor 4000 instrument which had been set to 340 nm excitation/490 nm emissions, automatic mode for 21 cycles and the plate read in a kinetic mode. EC50 determinations were carried out as described for the IC50 determinations.

[3] = Hepatitis C virus, Huh-7, read-out: EC50 Range, HCV replicon cell assay
[4] = read-out: EC50 Range, HCV replicon cell assay

T1 sequence (P27958 1027-1657, one chain of several): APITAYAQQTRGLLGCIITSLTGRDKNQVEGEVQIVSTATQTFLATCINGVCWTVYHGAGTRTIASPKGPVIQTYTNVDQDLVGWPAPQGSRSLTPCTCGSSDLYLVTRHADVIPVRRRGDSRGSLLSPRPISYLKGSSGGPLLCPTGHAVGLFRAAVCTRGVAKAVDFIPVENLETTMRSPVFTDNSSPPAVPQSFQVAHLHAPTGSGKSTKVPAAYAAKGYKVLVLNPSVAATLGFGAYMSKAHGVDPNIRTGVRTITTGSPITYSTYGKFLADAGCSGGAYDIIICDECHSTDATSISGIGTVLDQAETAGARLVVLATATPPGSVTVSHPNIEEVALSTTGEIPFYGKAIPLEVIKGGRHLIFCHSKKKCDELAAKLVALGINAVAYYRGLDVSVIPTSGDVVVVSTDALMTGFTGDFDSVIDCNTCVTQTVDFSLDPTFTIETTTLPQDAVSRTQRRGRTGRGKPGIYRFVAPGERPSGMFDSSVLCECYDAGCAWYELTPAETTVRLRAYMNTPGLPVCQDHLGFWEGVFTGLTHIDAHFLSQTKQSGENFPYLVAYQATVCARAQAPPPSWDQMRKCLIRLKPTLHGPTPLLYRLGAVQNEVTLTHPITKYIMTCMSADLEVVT

Row | SMILES | IC50 [1] | EC50 [2, 3] | EC50 [2, 4]
1 | C=C[C@@H]1C[C@]1(NC(=O)[C@@H]1C[C@@H](Oc2cc(-c3ccccc3)nc3cc(OC)ccc23)CN1C(=O)[C@@H](O)C(C)C)C(=O)NS(=O)(=O)C1CC1 (stereo in doubt) [Example 4,Compound 5] | < 100 nM | 500 to 5000 nM | –
2 | C=C[C@@H]1C[C@]1(NC(=O)[C@@H]1C[C@@H](Oc2nccc3cc(OC)ccc23)CN1C(=O)[C@@H](O)C(C)C)C(=O)NS(=O)(=O)C1CC1 (stereo in doubt) [Example 52Compound 52] | 100 to 1000 nM | – | > 5000 nM
3 | C=C[C@@H]1C[C@]1(NC(=O)[C@@H]1C[C@@H](Oc2nccc3cc(OC)ccc23)CN1C(=O)[C@@H](OC(=O)NC1CCCC1)C(C)C)C(=O)NS(=O)(=O)C1CC1 (stereo in doubt) [Example 53Compound 53] | > 1000 nM | – | > 5000 nM
4 | C=C[C@@H]1C[C@]1(NC(=O)[C@@H]1C[C@@H](Oc2cc(-c3ccccc3)nc3cc(OC)ccc23)CN1C(=O)[C@@H](O)c1ccccc1)C(=O)NS(=O)(=O)C1CC1 [Example 4,Compound 1] | 100 to 1000 nM | > 5000 nM | –
5 | C=C[C@@H]1C[C@]1(NC(=O)[C@@H]1C[C@@H](Oc2cc(-c3ccccc3)nc3cc(OC)ccc23)CN1C(=O)C(O)CC(C)C)C(=O)NS(=O)(=O)C1CC1 (some centres unmarked) [Example 4,Compound 2] | 100 to 1000 nM | 500 to 5000 nM | –
6 | C=C[C@@H]1C[C@]1(NC(=O)[C@@H]1C[C@@H](Oc2cc(-c3ccccc3)nc3cc(OC)ccc23)CN1C(=O)[C@@H](O)Cc1c[nH]cn1)C(=O)NS(=O)(=O)C1CC1 [Example 4,Compound 3] | 100 to 1000 nM | > 5000 nM | –
7 | C=C[C@@H]1C[C@]1(NC(=O)[C@@H]1C[C@@H](Oc2cc(-c3ccccc3)nc3cc(OC)ccc23)CN1C(=O)[C@@H](O)C1CCCCC1)C(=O)NS(=O)(=O)C1CC1 [Example 4,Compound 4] | < 100 nM | 500 to 5000 nM | –
8 | C=C[C@@H]1C[C@]1(NC(=O)[C@@H]1C[C@@H](Oc2cc(-c3ccccc3)nc3cc(OC)ccc23)CN1C(=O)[C@@H](O)CC(C)C)C(=O)NS(=O)(=O)C1CC1 [Example 4,Compound 6] | < 100 nM | 500 to 5000 nM | –
9 | C=C[C@@H]1C[C@]1(NC(=O)C1CC(Oc2cc(-c3ccccc3)nc3cc(OC)ccc23)CN1C(=O)[C@@H](O)C(C)(C)C)C(=O)NS(=O)(=O)C1CC1 (some centres unmarked) [Example 4,Compound 8] | < 100 nM | 500 to 5000 nM | –
10 | C=C[C@@H]1C[C@]1(NC(=O)[C@@H]1C[C@@H](Oc2cc(-c3ccccc3)nc3cc(OC)ccc23)CN1C(=O)[C@@H](OC(=O)NC(C)(C)C)C(C)(C)C)C(=O)NS(=O)(=O)C1CC1 [Example 5,Compound 1] | < 100 nM | < 500 nM | –
11 | C=C[C@@H]1C[C@]1(NC(=O)[C@@H]1C[C@@H](Oc2cc(-c3ccccc3)nc3cc(OC)ccc23)CN1C(=O)[C@@H](OC(=O)NC(C)C)C(C)(C)C)C(=O)NS(=O)(=O)C1CC1 [Example 5,Compound 2] | < 100 nM | < 500 nM | –
12 | C=C[C@@H]1C[C@]1(NC(=O)[C@@H]1C[C@@H](Oc2cc(-c3ccccc3)nc3cc(OC)ccc23)CN1C(=O)[C@@H](OC(=O)NC1CCCC1)C(C)(C)C)C(=O)NS(=O)(=O)C1CC1 [Example 5,Compound 3] | < 100 nM | < 500 nM | –
13 | C=C[C@@H]1C[C@]1(NC(=O)[C@@H]1C[C@@H](Oc2cc(-c3ccccc3)nc3cc(OC)ccc23)CN1C(=O)[C@@H](OC(=O)Nc1ccccc1)C(C)(C)C)C(=O)NS(=O)(=O)C1CC1 [Example 5,Compound 4] | < 100 nM | < 500 nM | –
14 | C=C[C@@H]1C[C@]1(NC(=O)[C@@H]1C[C@@H](Oc2cc(-c3ccccc3)nc3cc(OC)ccc23)CN1C(=O)[C@@H](OC(=O)Nc1ccc(OC)cc1)C(C)(C)C)C(=O)NS(=O)(=O)C1CC1 [Example 5,Compound 5] | 100 to 1000 nM | 500 to 5000 nM | –
15 | C=C[C@@H]1C[C@]1(NC(=O)[C@@H]1C[C@@H](Oc2cc(-c3ccccc3)nc3cc(OC)ccc23)CN1C(=O)[C@@H](OC(=O)Nc1ccc(OC)cc1C)C(C)(C)C)C(=O)NS(=O)(=O)C1CC1 [Example 5,Compound 6] | 100 to 1000 nM | 500 to 5000 nM | –
16 | C=C[C@@H]1C[C@]1(NC(=O)[C@@H]1C[C@@H](Oc2cc(-c3ccccc3)nc3cc(OC)ccc23)CN1C(=O)C1CC1)C(=O)NS(=O)(=O)C1CC1 [Example 19] | 100 to 1000 nM | – | –
17 | C=CCCCCCC(O)C(=O)N1C[C@H](Oc2nc(-c3ccccc3)cc3cc(OC)ccc23)CC1C(=O)N[C@]1(C(=O)NS(=O)(=O)C2CC2)CC1C=C (some centres unmarked) [Example 21] | 100 to 1000 nM | – | –
